Measurements from the supplement of paper PMC8617591.

Columns and labels:
[1] = tested on: Mycobacterium tuberculosis Erdman (autoluminescent); test: total FIC90 (Loewe) at 90% inhibition, three-drug combination (log2); higher = more antagonistic
Method: (§1)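 DiaMOND equipotent three-drug combination dose responses (10 doses, 1.5- or 2-fold spacing, centred on IC90) against autoluminescent M. tuberculosis Erdman in 8 in vitro models. Read-out is OD600, or luminescence for the intracellular and dormancy models, normalised to untreated wells. Hill-fit Einf, AUC25 and GRinf are potency metrics; FIC50 and FIC90 are total Loewe fractional inhibitory concentrations as log2 (negative = synergy).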

[2] = tested on: Mycobacterium tuberculosis Erdman (autoluminescent); test: AUC25, normalised area under dose response up to IC25 (three-drug combination) (fraction (0-1)); higher = more potent at low dose
Method: as §1

[3] = tested on: Mycobacterium tuberculosis Erdman (autoluminescent); test: GRinf, maximum normalised growth rate inhibition (three-drug combination) (unitless (-1 to 1)); higher = less effect (negative = killing)
Method: as §1

[4] = tested on: Mycobacterium tuberculosis Erdman (autoluminescent); test: Einf, fitted maximum growth inhibition of three-drug combination (fraction); higher = stronger maximal inhibition
Method: as §1

[5] = tested on: Mycobacterium tuberculosis Erdman (autoluminescent); test: total FIC50 (Loewe) at 50% inhibition, three-drug combination (log2); higher = more antagonistic
Method: as §1

COc1c(N2C[C@@H]3CCCN[C@@H]3C2)c(F)cc2c(=O)c(C(=O)O)cn(C3CC3)c12 [moxifloxacin] + NC(=O)c1cnccn1 [pyrazinamide] + CO[C@H]1/C=C/O[C@@]2(C)Oc3c(C)c(O)c4c(O)c(c(/C=N/N5CCN(C6CCCC6)CC5)c(O)c4c3C2=O)NC(=O)/C(C)=C\C=C\[C@H](C)[C@H](O)[C@@H](C)[C@@H](O)[C@@H](C)[C@H](OC(C)=O)[C@@H]1C [rifapentine]
Details	AUC25, [2]	Einf, [4]	GRinf, [3]	total FIC50, [5]	total FIC90, [1]
in vitro model: acidic pH 5.7, time point: constant (~7 days, model-specific)	0.0979	0.916	-0.164	0.396	–
in vitro model: acidic pH 5.7, time point: terminal (~4-5 doublings, model-specific)	0.0717	0.996	-0.192	0.991	-0.209
in vitro model: intracellular J774, time point: constant = terminal	–	0.968	-0.65	–	0.713

Details	AUC25, [2]	Einf, [4]	GRinf, [3]	total FIC50, [5]	total FIC90, [1]
in vitro model: butyrate, time point: constant (~7 days, model-specific)	0.118	0.907	0.0713	0.589	0.846
in vitro model: butyrate, time point: terminal (~4-5 doublings, model-specific)	0.0899	0.961	0.0339	0.781	1.19
in vitro model: cholesterol 0.05 mM, time point: constant (~7 days, model-specific)	0.116	0.617	-0.407	–	–
in vitro model: cholesterol 0.05 mM, time point: terminal (~4-5 doublings, model-specific)	0.0984	0.913	-0.171	1.31	–
in vitro model: cholesterol-high 0.2 mM, time point: constant (~7 days, model-specific)	0.0917	0.947	-0.459	0.921	–
in vitro model: cholesterol-high 0.2 mM, time point: terminal (~4-5 doublings, model-specific)	0.0805	1	-0.837	1.23	1.05
in vitro model: dormancy (butyrate + nitrate, low O2), time point: constant (~7 days, model-specific)	0.0716	0.862	0.214	0.262	0.265
in vitro model: dormancy (butyrate + nitrate, low O2), time point: terminal (~4-5 doublings, model-specific)	0.07	0.979	-0.13	0.473	1.04
in vitro model: standard 7H9 glycerol, time point: constant = terminal	0.0577	0.882	0.0649	–	–
in vitro model: valerate, time point: constant (~7 days, model-specific)	0.0789	0.81	0.162	0.849	–
in vitro model: valerate, time point: terminal (~4-5 doublings, model-specific)	0.0473	0.929	0.0611	0.778	0.693

COc1c(N2C[C@@H]3CCCN[C@@H]3C2)c(F)cc2c(=O)c(C(=O)O)cn(C3CC3)c12 [moxifloxacin] + NC(=O)c1cnccn1 [pyrazinamide] + CO[C@H]1/C=C/O[C@@]2(C)Oc3c(C)c(O)c4c(O)c(c(/C=N/N5CCN(C)CC5)c(O)c4c3C2=O)NC(=O)/C(C)=C\C=C\[C@H](C)[C@H](O)[C@@H](C)[C@@H](O)[C@@H](C)[C@H](OC(C)=O)[C@@H]1C [rifampicin]
Details	AUC25, [2]	Einf, [4]	GRinf, [3]	total FIC50, [5]	total FIC90, [1]
in vitro model: acidic pH 5.7, time point: constant (~7 days, model-specific)	0.0731	0.851	-0.155	0.177	–
in vitro model: acidic pH 5.7, time point: terminal (~4-5 doublings, model-specific)	0.0678	0.99	-0.208	0.423	-0.913
in vitro model: intracellular J774, time point: constant = terminal	–	0.99	-0.539	–	0.76

Details	AUC25, [2]	Einf, [4]	GRinf, [3]	total FIC50, [5]	total FIC90, [1]
in vitro model: butyrate, time point: constant (~7 days, model-specific)	0.119	0.869	0.125	0.49	2.29
in vitro model: butyrate, time point: terminal (~4-5 doublings, model-specific)	0.114	0.977	-0.00285	0.525	1.3
in vitro model: cholesterol 0.05 mM, time point: constant (~7 days, model-specific)	0.096	0.6	0.1	–	–
in vitro model: cholesterol 0.05 mM, time point: terminal (~4-5 doublings, model-specific)	0.0868	0.868	-0.00841	1.23	–
in vitro model: cholesterol-high 0.2 mM, time point: constant (~7 days, model-specific)	0.0908	0.912	-0.393	1.26	–
in vitro model: cholesterol-high 0.2 mM, time point: terminal (~4-5 doublings, model-specific)	0.0879	1	-0.949	1.58	1.47
in vitro model: dormancy (butyrate + nitrate, low O2), time point: constant (~7 days, model-specific)	0.0806	0.87	0.204	0.465	-0.0278
in vitro model: dormancy (butyrate + nitrate, low O2), time point: terminal (~4-5 doublings, model-specific)	0.0656	0.978	-0.115	0.411	0.407
in vitro model: standard 7H9 glycerol, time point: constant = terminal	0.0452	0.781	0.36	–	–
in vitro model: valerate, time point: constant (~7 days, model-specific)	0.0626	0.785	0.176	0.864	–
in vitro model: valerate, time point: terminal (~4-5 doublings, model-specific)	0.0319	0.909	0.127	0.853	0.657

COc1c(N2C[C@@H]3CCCN[C@@H]3C2)c(F)cc2c(=O)c(C(=O)O)cn(C3CC3)c12 [moxifloxacin] + O=[N+]([O-])c1cn2c(n1)OC[C@@H](OCc1ccc(OC(F)(F)F)cc1)C2 [pretomanid] + CO[C@H]1/C=C/O[C@@]2(C)Oc3c(C)c(O)c4c(O)c(c(/C=N/N5CCN(C6CCCC6)CC5)c(O)c4c3C2=O)NC(=O)/C(C)=C\C=C\[C@H](C)[C@H](O)[C@@H](C)[C@@H](O)[C@@H](C)[C@H](OC(C)=O)[C@@H]1C [rifapentine]
Details	AUC25, [2]	Einf, [4]	GRinf, [3]	total FIC50, [5]	total FIC90, [1]
in vitro model: acidic pH 5.7, time point: constant (~7 days, model-specific)	0.0693	0.874	-0.139	0.708	–
in vitro model: acidic pH 5.7, time point: terminal (~4-5 doublings, model-specific)	0.0354	0.971	-0.106	0.952	0.554
in vitro model: intracellular J774, time point: constant = terminal	–	0.964	-0.179	–	0.252

Details	AUC25, [2]	Einf, [4]	GRinf, [3]	total FIC50, [5]	total FIC90, [1]
in vitro model: butyrate, time point: constant (~7 days, model-specific)	0.099	0.918	-0.00663	0.501	0.722
in vitro model: butyrate, time point: terminal (~4-5 doublings, model-specific)	0.0765	0.963	-0.00653	0.582	0.784
in vitro model: cholesterol 0.05 mM, time point: constant (~7 days, model-specific)	0.111	0.713	-0.172	0.593	–
in vitro model: cholesterol 0.05 mM, time point: terminal (~4-5 doublings, model-specific)	0.0851	0.89	-0.186	1.01	1.21
in vitro model: cholesterol-high 0.2 mM, time point: constant (~7 days, model-specific)	0.0549	0.877	-0.142	0.887	0.511
in vitro model: cholesterol-high 0.2 mM, time point: terminal (~4-5 doublings, model-specific)	0.04	0.988	-0.672	1.15	0.705
in vitro model: dormancy (butyrate + nitrate, low O2), time point: constant (~7 days, model-specific)	0.0589	0.89	0.213	0.874	0.639
in vitro model: dormancy (butyrate + nitrate, low O2), time point: terminal (~4-5 doublings, model-specific)	0.0483	0.98	-0.128	1.17	1.14
in vitro model: standard 7H9 glycerol, time point: constant = terminal	0.0568	0.928	-0.0296	0.55	0.207
in vitro model: valerate, time point: constant (~7 days, model-specific)	0.116	0.89	0.0703	0.213	–
in vitro model: valerate, time point: terminal (~4-5 doublings, model-specific)	0.0723	0.941	0.0683	0.631	0.879
